30 compounds from the NIST ThermoML archive (doi:10.1021/je500918t) can be followed below.

Numbers after ± are expanded uncertainties.

A short description of data set [1]: Molar enthalpy of transition or fusion. The conditions noted are these: Crystal; DSC.
For data set [2] the following is noted: Crystal; DTA.

On to `O=S(=O)(Nc1ccc(Cl)cc1)c1ccccc1` [N-(4-chlorophenyl)benzenesulfonamide], for which the “Molar enthalpy of transition or fusion” value in data set [1] was found to be 6.17 ± 0.263 kcal/mol. Further, the Normal melting temperature in data set [2] was determined as 121.5 ± 0.5 °C.

Turning to `Nc1ccc(S(=O)(=O)Nc2ccc(Cl)cc2)c(Cl)c1` [4-amino-2-chloro-N-(4-chlorophenyl)benzenesulfonamide], in data set [1], the “Molar enthalpy of transition or fusion” value came out at 8.34 ± 0.287 kcal/mol. The Normal melting temperature in data set [2] came out at 195.6 ± 0.5 °C.

For the compound `O=S(=O)(Nc1ccccc1)c1ccccc1` [N-phenylbenzenesulfonamide], the “Molar enthalpy of transition or fusion” value in data set [1] was 5.62 ± 0.263 kcal/mol. Also, the Normal melting temperature in data set [2] was 110.4 ± 0.5 °C.

Take `Cc1ccc(NS(=O)(=O)c2ccc(N)cc2)c(Cl)c1` [4-amino-N-(2-chloro-4-methylphenyl)benzenesulfonamide]: in data set [1], the “Molar enthalpy of transition or fusion” value is 7.58 ± 0.287 kcal/mol. The Normal melting temperature in data set [2] is 155.7 ± 0.5 °C.

`Nc1ccc(S(=O)(=O)N(c2ccccc2)c2ccccc2)cc1` [4-amino-N,N-diphenylbenzenesulfonamide]: the “Molar enthalpy of transition or fusion” value in data set [1] was found to be 8.39 ± 0.287 kcal/mol. In data set [2], the Normal melting temperature is 179.5 ± 0.5 °C.

Take `Nc1ccc(S(=O)(=O)Nc2ccc([N+](=O)[O-])cc2Br)cc1` [4-amino-N-(2-bromo-4-nitrophenyl)benzenesulfonamide]: the “Molar enthalpy of transition or fusion” value in data set [1] was 9.46 ± 0.311 kcal/mol. Further, the Normal melting temperature in data set [2] is 188 ± 0.5 °C.

In the case of `CC(=O)Nc1ccncc1NS(=O)(=O)c1ccc([N+](=O)[O-])cc1` [N-[3-[[(4-nitrophenyl)sulfonyl]amino]-4-pyridinyl]-acetamide], in data set [1], the “Molar enthalpy of transition or fusion” value was 9.89 ± 0.311 kcal/mol. Further, the Normal melting temperature in data set [2] came out at 238.0 ± 0.5 °C.

Turning to `Cc1ccc(NS(=O)(=O)c2ccc(N)cc2)cc1Cl` [4-amino-N-(3-chloro-4-methylphenyl)benzenesulfonamide], the “Molar enthalpy of transition or fusion” value in data set [1] worked out at 10.9 ± 0.311 kcal/mol. For the same compound, in data set [2], the Normal melting temperature came to 204.5 ± 0.5 °C.

Take `Cc1cc(N)ccc1S(=O)(=O)Nc1ccccc1Cl` [4-amino-N-(2-chlorophenyl)-2-methylbenzenesulfonamide]: the “Molar enthalpy of transition or fusion” value in data set [1] turned out to be 11.3 ± 0.335 kcal/mol. In addition, the Normal melting temperature in data set [2] was found to be 206.4 ± 0.5 °C.

For `Nc1ccc(S(=O)(=O)Nc2cccc(Cl)c2Cl)cc1` [4-amino-N-(2,3-dichlorophenyl)benzenesulfonamide], the “Molar enthalpy of transition or fusion” value in data set [1] was determined as 9.78 ± 0.311 kcal/mol. Besides, the Normal melting temperature in data set [2] was 181.2 ± 0.5 °C.

On to `CN(C)S(=O)(=O)c1ccc(N)cc1` [4-amino-N,N-dimethylbenzenesulfonamide], for which, in data set [1], the “Molar enthalpy of transition or fusion” value is 7.1 ± 0.287 kcal/mol. In data set [2], the Normal melting temperature was found to be 171.5 ± 0.5 °C.

Turning to `O=[N+]([O-])c1ccc(S(=O)(=O)Nc2nccs2)cc1` [4-nitro-N-2-thiazolylbenzenesulfonamide], the “Molar enthalpy of transition or fusion” value in data set [1] was 7.6 ± 0.287 kcal/mol. Further, in data set [2], the Normal melting temperature stood at 256.6 ± 0.5 °C.

Regarding `CCN(CC)S(=O)(=O)c1ccc(N)cc1` [4-amino-N,N-diethylbenzenesulfonamide], in data set [1], the “Molar enthalpy of transition or fusion” value was 4.64 ± 0.263 kcal/mol. For the same compound, the Normal melting temperature in data set [2] turned out to be 105.7 ± 0.5 °C.

Turning to `COc1ccc(NS(=O)(=O)c2ccc(N)cc2)cc1` [4-amino-N-(4-methoxyphenyl)benzenesulfonamide], in data set [1], the “Molar enthalpy of transition or fusion” value turned out to be 9.23 ± 0.311 kcal/mol. For the same compound, the Normal melting temperature in data set [2] is 194.2 ± 0.5 °C.

Turning to `Nc1ccc(S(=O)(=O)Nc2ccc(Cl)cc2)cc1` [4-amino-N-(4-chlorophenyl)benzenesulfonamide], the “Molar enthalpy of transition or fusion” value in data set [1] was determined as 5.69 ± 0.263 kcal/mol. Besides, in data set [2], the Normal melting temperature amounted to 194.8 ± 0.5 °C.

As for `O=S(=O)(Nc1cccc(Cl)c1Cl)c1ccccc1` [N-(2,3-dichlorophenyl)benzenesulfonamide], the “Molar enthalpy of transition or fusion” value in data set [1] came out at 6.5 ± 0.263 kcal/mol. The Normal melting temperature in data set [2] is 114.1 ± 0.5 °C.

As for `CNS(=O)(=O)c1ccc(N)cc1` [4-amino-N-methylbenzenesulfonamide], the “Molar enthalpy of transition or fusion” value in data set [1] was 4.09 ± 0.263 kcal/mol. Further, the Normal melting temperature in data set [2] was determined as 109.1 ± 0.5 °C.

As to `Cc1ccc(NS(=O)(=O)c2ccc([N+](=O)[O-])cc2)nc1` [N-(5-methylpyridin-2-yl)-4-nitrobenzenesulfonamide], in data set [1], the “Molar enthalpy of transition or fusion” value came out at 10.9 ± 0.311 kcal/mol. Besides, in data set [2], the Normal melting temperature was 161.0 ± 0.5 °C.

For the compound `CCc1ccc(NS(=O)(=O)c2ccc(N)cc2)cc1` [4-amino-N-(4-ethylphenyl)benzenesulfonamide], in data set [1], the “Molar enthalpy of transition or fusion” value worked out at 8.68 ± 0.287 kcal/mol. The Normal melting temperature in data set [2] worked out at 163.1 ± 0.5 °C.

Consider `Cc1ccc(Cl)cc1NS(=O)(=O)c1ccc(N)cc1` [4-amino-N-(5-chloro-2-methylphenyl)benzenesulfonamide], for which the “Molar enthalpy of transition or fusion” value in data set [1] came out at 8.8 ± 0.287 kcal/mol. Moreover, the Normal melting temperature in data set [2] was 149.6 ± 0.5 °C.

As to `O=S(=O)(Nc1ncccc1Cl)c1ccccc1` [N-(3-chloro-2-pyridinyl)benzenesulfonamide], the “Molar enthalpy of transition or fusion” value in data set [1] came to 6.72 ± 0.287 kcal/mol. Further, in data set [2], the Normal melting temperature turned out to be 131.0 ± 0.5 °C.

Consider `O=[N+]([O-])c1ccccc1NS(=O)(=O)c1ccccc1` [N-(2-nitrophenyl)benzenesulfonamide], for which the “Molar enthalpy of transition or fusion” value in data set [1] is 5.33 ± 0.263 kcal/mol. The Normal melting temperature in data set [2] was 98.7 ± 0.5 °C.

Consider `O=S(=O)(Nc1ccccc1Cl)c1ccccc1` [N-(2-chlorophenyl)benzenesulfonamide], for which, in data set [1], the “Molar enthalpy of transition or fusion” value was 8.01 ± 0.287 kcal/mol. The Normal melting temperature in data set [2] stood at 125.1 ± 0.5 °C.

As for `Nc1ccc(S(=O)(=O)Nc2cc(Cl)ccc2Cl)cc1` [4-amino-N-(2,5-dichlorophenyl)benzenesulfonamide], the “Molar enthalpy of transition or fusion” value in data set [1] came out at 9.87 ± 0.311 kcal/mol. Besides, in data set [2], the Normal melting temperature is 172.8 ± 0.5 °C.

As for `Cc1cc(N)ccc1S(=O)(=O)Nc1ccc(Cl)cc1` [4-amino-N-(4-chlorophenyl)-2-methylbenzenesulfonamide], the “Molar enthalpy of transition or fusion” value in data set [1] was 8.53 ± 0.287 kcal/mol. In data set [2], the Normal melting temperature is 173.4 ± 0.5 °C.

Turning to `Cc1cc(N)ccc1S(=O)(=O)Nc1ccccc1[N+](=O)[O-]` [4-amino-2-methyl-N-(2-nitrophenyl)benzenesulfonamide], the “Molar enthalpy of transition or fusion” value in data set [1] stood at 9.56 ± 0.311 kcal/mol. In addition, the Normal melting temperature in data set [2] stood at 178.2 ± 0.5 °C.

In the case of `Cc1cc(Cl)ccc1NS(=O)(=O)c1ccc(N)cc1` [4-amino-N-(4-chloro-2-methylphenyl)benzenesulfonamide], in data set [1], the “Molar enthalpy of transition or fusion” value is 8.8 ± 0.287 kcal/mol. In addition, the Normal melting temperature in data set [2] amounted to 149.6 ± 0.5 °C.

On to `Nc1ccc(S(=O)(=O)Nc2ccccc2Cl)c(Cl)c1` [4-amino-2-chloro-N-(2-chlorophenyl)benzenesulfonamide], for which the “Molar enthalpy of transition or fusion” value in data set [1] amounted to 12.3 ± 0.335 kcal/mol. The Normal melting temperature in data set [2] was found to be 232 ± 0.5 °C.

Take `Nc1ccc(S(=O)(=O)Nc2cc(Cl)c(Cl)cc2Cl)cc1` [4-amino-N-(2,4,5-trichlorophenyl)benzenesulfonamide]: in data set [1], the “Molar enthalpy of transition or fusion” value stood at 9.49 ± 0.311 kcal/mol. In data set [2], the Normal melting temperature turned out to be 188.1 ± 0.5 °C.

Take `CCOC(=O)c1ccc(NS(=O)(=O)c2ccccc2)nc1` [ethyl 6-(phenylsulfonamido)nicotinate]: in data set [1], the “Molar enthalpy of transition or fusion” value is 5.38 ± 0.263 kcal/mol. Besides, the Normal melting temperature in data set [2] turned out to be 154.8 ± 0.5 °C.
